Results from patent US20200131669A1, “CYCLIC PEPTIDE COMPOUND HAVING HIGH MEMBRANE PERMEABILITY, AND LIBRARY CONTAINING SAME” (Chugai Seiyaku Kabushiki Kaisha, priority 2017, published 2020).
Starred links: 1 amine or outer side, 2 acyl side, 3 side chain; linkers in the order of their positions; H or OH if unused. Positions of bridges follow the written chain, without caps; N, C: chain ends. Non-standard residues stand in square brackets, D forms with d. Residues, ends and D or L forms follow the SMILES beside them. *: point of attachment. X1 = CC(CC(=O)[*:2])C(=O)[C@@H](N[*:1])[C@@H](C)O; NMePhe(3-Cl) = CN[C@@H](Cc1cccc(Cl)c1)C(=O)O; Ethyl(2-morpholino) = C1CN(CC*)CCO1; NMeF = CN[C@@H](Cc1ccccc1)C(=O)O; NMeGABA = CN(CCCC(=O)[*:2])[*:1]; NMeI = CC[C@H](C)[C@H](NC)C(=O)O; NMeD = CN[C@@H](CC(=O)O)C(=O)O; NMeL = CN[C@@H](CC(C)C)C(=O)O; dNMeL = CN[C@H](CC(C)C)C(=O)O; Propyl(2R-OH) = C[C@@H](O)C*; dNMeAbu = CC[C@@H](NC)C(=O)O; NMeV = CN[C@H](C(=O)O)C(C)C; NMeAbu = CC[C@H](NC)C(=O)O; NMeA = CN[C@@H](C)C(=O)O; Piperidide = C1CCN(*)CC1; dNMeA = CN[C@H](C)C(=O)O; NBuGly = CCCCNCC(=O)O; Ethyl(2-OH) = OCC*; Sar = CNCC(=O)O; tBu = CC(C)(C)*

What was measured:
Caco-2 cells [1] = conditions: Ozeki et al. 2015, cited from earlier work; for decrease in the concentration on the Apical side: 120 minutes of incubation
[2] = Caco-2 membrane permeability, improved method as used in the following Examples (96-well, 20 to 24 h preincubation); type: in vitro ADME; conditions: human, Caco-2, Caco-2 (cm/sec)
In short: (§1)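 Papp (cm/sec) was derived from LC/MS of basal samples collected 180 min after apical dosing in FaSSIF/HBSS pH 6.0 with 1% DMSO, against a basal HBSS pH 7.4 receiver containing 4% BSA. Three-week Caco-2 cultures were first preincubated with compound in DMEM+FaSSIF at 37 °C for 20–24 h.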

Caco-2 cells [3] = experiment: as above; type: in vitro ADME
In short: as §1

In the case of `COCCc1ccc(OCC(O)CNC(C)C)cc1` (stereo not drawn) [metoprolol], the “decrease in the concentration on the Apical side” value (Caco-2 cells [1]) is listed as “approximately 20%”.

With `CC(C)C[C@H]1C(=O)N[C@@H]([C@@H](C)O)C(=O)C(C)CC(=O)N(C)[C@@H](C(C)C)C(=O)N[C@@H](Cc2ccccc2)C(=O)N(C)[C@@H](Cc2cccc(Cl)c2)C(=O)N(C)[C@@H](CC(C)C)C(=O)N(C)[C@H](C(=O)N2CCCCC2)CC(=O)N2CCC[C@H]2C(=O)N[C@@H](Cc2ccccc2)C(=O)N[C@@H](COC(C)(C)C)C(=O)N1C` (stereo partly drawn) [pd162] (PFS(tBu)[NMeL][X1][NMeV]F[NMePhe(3-Cl)][NMeL][NMeD]-Piperidide; lactam N-10) the Papp A→B at 180 min [2] was 1.2 ×10⁻⁶ cm/s and the “Caco-2” value (Caco-2 cells [3]; Caco-2) was 1.2e-06 cm/s.

For `CC(C)C[C@H]1C(=O)N[C@@H]([C@@H](C)O)C(=O)N(C)CC(=O)N(C)[C@@H](C(C)C)C(=O)N[C@@H](Cc2ccccc2)C(=O)N(C)[C@@H](Cc2cccc(Cl)c2)C(=O)N(C)[C@@H](CC(C)C)C(=O)N(C)[C@H](C(=O)N2CCCCC2)CC(=O)N2CCC[C@@H]2C(=O)N[C@@H](Cc2ccccc2)C(=O)N[C@@H](COC(C)(C)C)C(=O)N1C` [pd163] ([dP]FS(tBu)[NMeL]T[Sar][NMeV]F[NMePhe(3-Cl)][NMeL][NMeD]-Piperidide; lactam N-11), the Papp A→B at 180 min [2] was 1.7 ×10⁻⁶ cm/s and the “Caco-2” value (Caco-2 cells [3]; Caco-2) was 1.7e-06 cm/s.

With `CC(C)C[C@H]1C(=O)N[C@@H]([C@@H](C)O)C(=O)N(C)CC(=O)N(C)[C@@H](C(C)C)C(=O)N[C@@H](Cc2ccccc2)C(=O)N(C)[C@@H](Cc2cccc(Cl)c2)C(=O)N(C)[C@@H](CC(C)C)C(=O)N(C)[C@H](C(=O)N2CCCCC2)CC(=O)N(C)[C@H](C)C(=O)N[C@@H](Cc2ccccc2)C(=O)N[C@@H](COC(C)(C)C)C(=O)N1C` [pd167] ([dNMeA]FS(tBu)[NMeL]T[Sar][NMeV]F[NMePhe(3-Cl)][NMeL][NMeD]-Piperidide; lactam N-11) the Papp A→B at 180 min [2] was 1.7 ×10⁻⁶ cm/s and the “Caco-2” value (Caco-2 cells [3]; Caco-2) was 1.7e-06 cm/s.

With `CCCCN1CC(=O)N(C)[C@@H](CC(C)C)C(=O)N[C@H](C(=O)N2CCCCC2)CC(=O)N(C)[C@@H](CC)C(=O)N[C@H](CC(C)C)C(=O)N(C)[C@@H](CC(C)C)C(=O)N(C)[C@@H](Cc2ccccc2)C(=O)N[C@@H](COCCN2CCOCC2)C(=O)N(C)[C@H](CC)C(=O)N(C)[C@@H](CC(C)C)C(=O)N[C@@H]([C@@H](C)O)C1=O` [pd482] ([NMeAbu][dL][NMeL][NMeF]S(Ethyl(2-morpholino))[dNMeAbu][NMeL]T[NBuGly][NMeL]D-Piperidide; lactam N-11) the Caco-2 (Caco-2 cells [3]; human, Caco-2, 180 min) was 1.1e-06 cm/s.

With `CCCCN1CC(=O)N(C)[C@@H](Cc2ccccc2)C(=O)N(C)[C@@H](CC(C)C)C(=O)N[C@@H](CC(C)C)C(=O)N(C)[C@@H](CC(C)C)C(=O)N[C@H](C(=O)N2CCCCC2)CC(=O)N(C)CC(=O)N(C)[C@@H](CC)C(=O)N[C@@H](C(C)C)C(=O)N(C)[C@@H](CC(C)C)C(=O)N[C@@H](COCCN2CCOCC2)C1=O` [pd486] ([Sar][NMeAbu]V[NMeL]S(Ethyl(2-morpholino))[NBuGly][NMeF][NMeL]L[NMeL]D-Piperidide; lactam N-11) the Caco-2 (Caco-2 cells [3]; human, Caco-2, 180 min) was 1.1e-06 cm/s.

`CCCCN1CC(=O)N(C)[C@@H](CC(C)C)C(=O)N[C@H](C(=O)N2CCCCC2)CC(=O)N(C)[C@@H](C)C(=O)N[C@@H](COC[C@@H](C)O)C(=O)N(C)[C@H](CC(C)C)C(=O)N(C)[C@@H](Cc2cccc(Cl)c2)C(=O)N[C@@H](CC(C)C)C(=O)N(C)[C@@H](Cc2ccccc2)C(=O)N(C)[C@@H]([C@@H](C)CC)C(=O)N[C@@H]([C@@H](C)O)C1=O` [pd489] ([NMeA]S(Propyl(2R-OH))[dNMeL][NMePhe(3-Cl)]L[NMeF][NMeI]T[NBuGly][NMeL]D-Piperidide; lactam N-11) showed a Caco-2 (Caco-2 cells [3]; human, Caco-2, 180 min) of 1.1e-06 cm/s.

In the case of `CC[C@H](C)[C@H]1C(=O)N[C@@H]([C@@H](C)O)C(=O)N(C)CC(=O)N(C)[C@@H](CC(C)C)C(=O)N[C@H](C(=O)N2CCCCC2)CC(=O)N(C)[C@@H](C(C)C)C(=O)N[C@@H](COC[C@@H](C)O)C(=O)N(C)[C@H](CC(C)C)C(=O)N(C)[C@@H](Cc2cccc(Cl)c2)C(=O)N[C@@H](CC(C)C)C(=O)N(C)[C@@H](Cc2ccccc2)C(=O)N1C` [pd491] ([NMeV]S(Propyl(2R-OH))[dNMeL][NMePhe(3-Cl)]L[NMeF][NMeI]T[Sar][NMeL]D-Piperidide; lactam N-11), the Caco-2 (Caco-2 cells [3]; human, Caco-2, 180 min) is reported as 1.1e-06 cm/s.

With `CC(C)C[C@H]1C(=O)N[C@@H](C(C)C)C(=O)N(C)[C@@H](Cc2ccccc2)C(=O)N(C)[C@@H](Cc2ccccc2)C(=O)N[C@@H](COC(C)(C)C)C(=O)N(C)[C@@H](CC(C)C)C(=O)N[C@@H](COCCO)C(=O)N(C)[C@@H](CC(C)C)C(=O)N(C)[C@@H](CC(C)C)C(=O)N[C@H](C(=O)N2CCCCC2)CC(=O)N(C)CCCC(=O)N1C` [pd498] ([NMeGABA][NMeL]V[NMeF][NMeF]S(tBu)[NMeL]S(Ethyl(2-OH))[NMeL][NMeL]D-Piperidide; lactam N-11) the Caco-2 (Caco-2 cells [3]; human, Caco-2, 180 min) was 1.1e-06 cm/s.

In the case of `CCCCN1CC(=O)N(C)[C@@H](Cc2ccccc2)C(=O)N(C)[C@@H](CC(C)C)C(=O)N[C@@H](COC(C)(C)C)C(=O)N(C)[C@@H](CC(C)C)C(=O)N[C@H](C(=O)N2CCCCC2)CC(=O)N(C)CC(=O)N(C)[C@@H](Cc2ccccc2)C(=O)N[C@@H](C(C)C)C(=O)N(C)[C@@H](CC(C)C)C(=O)N[C@@H](COCCO)C1=O` [pd501] ([Sar][NMeF]V[NMeL]S(Ethyl(2-OH))[NBuGly][NMeF][NMeL]S(tBu)[NMeL]D-Piperidide; lactam N-11), the Caco-2 (Caco-2 cells [3]; human, Caco-2, 180 min) is reported as 1.1e-06 cm/s.

In the case of `CC(C)NCC(O)COc1cccc2ccccc12` (stereo not drawn) [propranolol], the “decrease in the concentration on the Apical side” value (Caco-2 cells [1]) is listed as “approximately 40%” and the “added drug distributed in the cells after completion of incubation” value (Caco-2 cells [1]) is listed as “approximately 8%”.
